Results reported in article PMC10176470, “Engaging a Non-catalytic Cysteine Residue Drives Potent and Selective Inhibition of Caspase-6” (Journal of the American Chemical Society, 2023).

Tests used:
Format in all cases: cell-based
[1] = molecular target: T1, proteins of HEK293T cells transiently overexpressing caspase-6 (Homo sapiens, UniProt P04075); settings: protein ALDOA (P04075)
T1 sequence (P04075 1-364): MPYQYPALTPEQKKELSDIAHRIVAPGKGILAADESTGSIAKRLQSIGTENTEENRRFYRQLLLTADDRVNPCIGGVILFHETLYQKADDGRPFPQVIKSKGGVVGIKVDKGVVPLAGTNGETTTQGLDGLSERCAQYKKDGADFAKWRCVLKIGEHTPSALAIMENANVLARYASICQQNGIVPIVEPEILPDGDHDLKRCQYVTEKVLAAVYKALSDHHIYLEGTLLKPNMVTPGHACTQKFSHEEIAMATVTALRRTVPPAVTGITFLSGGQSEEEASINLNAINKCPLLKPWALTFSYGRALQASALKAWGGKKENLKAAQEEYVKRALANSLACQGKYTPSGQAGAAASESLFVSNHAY

[2] = molecular target: proteins of HEK293T cells transiently overexpressing caspase-6 (Homo sapiens, UniProt P21333)
[3] = molecular target: proteins of HEK293T cells transiently overexpressing caspase-6 (Homo sapiens, UniProt P43243); settings: exp_ref Probe; protein MATR3 (P43243); analysis C6
[4] = molecular target: proteins of HEK293T cells transiently overexpressing caspase-6 (Homo sapiens, UniProt Q16531); settings: Probe; protein DDB1 Q16531
[5] = molecular target: proteins of HEK293T cells transiently overexpressing caspase-6 (Homo sapiens, UniProt O14980); settings: protein XPO1 (O14980); exp_ref Probe; analysis C6
[6] = molecular target: T2, proteins of HEK293T cells transiently overexpressing caspase-6 (Homo sapiens, UniProt P14324); settings: Probe; protein FDPS P14324
T2 sequence (P14324 1-419): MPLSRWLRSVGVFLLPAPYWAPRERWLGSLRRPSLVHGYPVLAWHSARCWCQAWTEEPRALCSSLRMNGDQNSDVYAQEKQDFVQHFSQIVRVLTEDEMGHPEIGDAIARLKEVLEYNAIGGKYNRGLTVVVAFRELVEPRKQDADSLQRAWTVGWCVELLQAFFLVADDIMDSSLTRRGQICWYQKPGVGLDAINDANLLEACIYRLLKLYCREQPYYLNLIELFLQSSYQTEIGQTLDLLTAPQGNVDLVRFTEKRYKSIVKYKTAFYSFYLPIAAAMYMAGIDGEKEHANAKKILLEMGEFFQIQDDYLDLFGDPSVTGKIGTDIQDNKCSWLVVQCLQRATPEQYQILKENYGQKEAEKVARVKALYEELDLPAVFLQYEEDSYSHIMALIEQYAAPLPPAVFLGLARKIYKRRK

[7] = molecular target: proteins of HEK293T cells transiently overexpressing caspase-6 (Homo sapiens, UniProt P08670)
[8] = molecular target: proteins of HEK293T cells transiently overexpressing caspase-6 (Homo sapiens, UniProt O00571); settings: exp_ref Probe; protein DDX3X (O00571); analysis C6
[9] = molecular target: proteins of HEK293T cells transiently overexpressing caspase-6 (Homo sapiens, UniProt P32119); settings: exp_ref Probe; protein PRDX2 (P32119); analysis C6
[10] = molecular target: proteins of HEK293T cells transiently overexpressing caspase-6 (Homo sapiens, UniProt Q92841); settings: exp_ref Probe; protein DDX17 (Q92841); analysis C6
[11] = molecular target: proteins of HEK293T cells transiently overexpressing caspase-6 (Homo sapiens, UniProt P24752); settings: Probe; protein ACAT1 P24752
[12] = molecular target: proteins of HEK293T cells transiently overexpressing caspase-6 (Homo sapiens, UniProt Q9NR30); settings: exp_ref Probe; protein DDX21 (Q9NR30); analysis C6
[13] = molecular target: proteins of HEK293T cells transiently overexpressing caspase-6 (Homo sapiens, UniProt P62805)
[14] = molecular target: proteins of HEK293T cells transiently overexpressing caspase-6 (Homo sapiens, UniProt P14314); settings: Probe; protein PRKCSH P14314
[15] = molecular target: proteins of HEK293T cells transiently overexpressing caspase-6 (Homo sapiens, UniProt P00338); settings: Probe; protein LDHA P00338
[16] = molecular target: proteins of HEK293T cells transiently overexpressing caspase-6 (Homo sapiens, UniProt P10809); settings: protein HSPD1 (P10809)
[17] = molecular target: proteins of HEK293T cells transiently overexpressing caspase-6 (Homo sapiens, UniProt Q9BRX8); settings: Probe; protein FAM213A Q9BRX8
[18] = molecular target: proteins of HEK293T cells transiently overexpressing caspase-6 (Homo sapiens, UniProt P63244); settings: exp_ref Probe; protein GNB2L1 (P63244); analysis C6
[19] = molecular target: proteins of HEK293T cells transiently overexpressing caspase-6 (Homo sapiens, UniProt P25788); settings: Probe; protein PSMA3 P25788

Chain of proteins of HEK293T cells transiently overexpressing caspase-6 (Homo sapiens, UniProt P08670) (P08670 whole entry): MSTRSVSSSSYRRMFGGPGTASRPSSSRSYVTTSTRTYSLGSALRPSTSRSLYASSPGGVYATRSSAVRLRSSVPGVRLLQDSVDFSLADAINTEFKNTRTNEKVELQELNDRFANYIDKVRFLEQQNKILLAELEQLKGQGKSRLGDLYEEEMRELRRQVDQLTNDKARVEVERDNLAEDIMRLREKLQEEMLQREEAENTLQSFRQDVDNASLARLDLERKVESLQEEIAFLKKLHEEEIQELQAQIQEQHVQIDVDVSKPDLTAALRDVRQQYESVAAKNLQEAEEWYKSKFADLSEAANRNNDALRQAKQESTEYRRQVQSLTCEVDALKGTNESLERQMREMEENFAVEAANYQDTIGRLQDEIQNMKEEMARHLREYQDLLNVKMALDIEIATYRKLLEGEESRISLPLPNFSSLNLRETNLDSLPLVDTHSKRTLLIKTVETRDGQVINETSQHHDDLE
Chain of proteins of HEK293T cells transiently overexpressing caspase-6 (Homo sapiens, UniProt P21333) (P21333 whole entry): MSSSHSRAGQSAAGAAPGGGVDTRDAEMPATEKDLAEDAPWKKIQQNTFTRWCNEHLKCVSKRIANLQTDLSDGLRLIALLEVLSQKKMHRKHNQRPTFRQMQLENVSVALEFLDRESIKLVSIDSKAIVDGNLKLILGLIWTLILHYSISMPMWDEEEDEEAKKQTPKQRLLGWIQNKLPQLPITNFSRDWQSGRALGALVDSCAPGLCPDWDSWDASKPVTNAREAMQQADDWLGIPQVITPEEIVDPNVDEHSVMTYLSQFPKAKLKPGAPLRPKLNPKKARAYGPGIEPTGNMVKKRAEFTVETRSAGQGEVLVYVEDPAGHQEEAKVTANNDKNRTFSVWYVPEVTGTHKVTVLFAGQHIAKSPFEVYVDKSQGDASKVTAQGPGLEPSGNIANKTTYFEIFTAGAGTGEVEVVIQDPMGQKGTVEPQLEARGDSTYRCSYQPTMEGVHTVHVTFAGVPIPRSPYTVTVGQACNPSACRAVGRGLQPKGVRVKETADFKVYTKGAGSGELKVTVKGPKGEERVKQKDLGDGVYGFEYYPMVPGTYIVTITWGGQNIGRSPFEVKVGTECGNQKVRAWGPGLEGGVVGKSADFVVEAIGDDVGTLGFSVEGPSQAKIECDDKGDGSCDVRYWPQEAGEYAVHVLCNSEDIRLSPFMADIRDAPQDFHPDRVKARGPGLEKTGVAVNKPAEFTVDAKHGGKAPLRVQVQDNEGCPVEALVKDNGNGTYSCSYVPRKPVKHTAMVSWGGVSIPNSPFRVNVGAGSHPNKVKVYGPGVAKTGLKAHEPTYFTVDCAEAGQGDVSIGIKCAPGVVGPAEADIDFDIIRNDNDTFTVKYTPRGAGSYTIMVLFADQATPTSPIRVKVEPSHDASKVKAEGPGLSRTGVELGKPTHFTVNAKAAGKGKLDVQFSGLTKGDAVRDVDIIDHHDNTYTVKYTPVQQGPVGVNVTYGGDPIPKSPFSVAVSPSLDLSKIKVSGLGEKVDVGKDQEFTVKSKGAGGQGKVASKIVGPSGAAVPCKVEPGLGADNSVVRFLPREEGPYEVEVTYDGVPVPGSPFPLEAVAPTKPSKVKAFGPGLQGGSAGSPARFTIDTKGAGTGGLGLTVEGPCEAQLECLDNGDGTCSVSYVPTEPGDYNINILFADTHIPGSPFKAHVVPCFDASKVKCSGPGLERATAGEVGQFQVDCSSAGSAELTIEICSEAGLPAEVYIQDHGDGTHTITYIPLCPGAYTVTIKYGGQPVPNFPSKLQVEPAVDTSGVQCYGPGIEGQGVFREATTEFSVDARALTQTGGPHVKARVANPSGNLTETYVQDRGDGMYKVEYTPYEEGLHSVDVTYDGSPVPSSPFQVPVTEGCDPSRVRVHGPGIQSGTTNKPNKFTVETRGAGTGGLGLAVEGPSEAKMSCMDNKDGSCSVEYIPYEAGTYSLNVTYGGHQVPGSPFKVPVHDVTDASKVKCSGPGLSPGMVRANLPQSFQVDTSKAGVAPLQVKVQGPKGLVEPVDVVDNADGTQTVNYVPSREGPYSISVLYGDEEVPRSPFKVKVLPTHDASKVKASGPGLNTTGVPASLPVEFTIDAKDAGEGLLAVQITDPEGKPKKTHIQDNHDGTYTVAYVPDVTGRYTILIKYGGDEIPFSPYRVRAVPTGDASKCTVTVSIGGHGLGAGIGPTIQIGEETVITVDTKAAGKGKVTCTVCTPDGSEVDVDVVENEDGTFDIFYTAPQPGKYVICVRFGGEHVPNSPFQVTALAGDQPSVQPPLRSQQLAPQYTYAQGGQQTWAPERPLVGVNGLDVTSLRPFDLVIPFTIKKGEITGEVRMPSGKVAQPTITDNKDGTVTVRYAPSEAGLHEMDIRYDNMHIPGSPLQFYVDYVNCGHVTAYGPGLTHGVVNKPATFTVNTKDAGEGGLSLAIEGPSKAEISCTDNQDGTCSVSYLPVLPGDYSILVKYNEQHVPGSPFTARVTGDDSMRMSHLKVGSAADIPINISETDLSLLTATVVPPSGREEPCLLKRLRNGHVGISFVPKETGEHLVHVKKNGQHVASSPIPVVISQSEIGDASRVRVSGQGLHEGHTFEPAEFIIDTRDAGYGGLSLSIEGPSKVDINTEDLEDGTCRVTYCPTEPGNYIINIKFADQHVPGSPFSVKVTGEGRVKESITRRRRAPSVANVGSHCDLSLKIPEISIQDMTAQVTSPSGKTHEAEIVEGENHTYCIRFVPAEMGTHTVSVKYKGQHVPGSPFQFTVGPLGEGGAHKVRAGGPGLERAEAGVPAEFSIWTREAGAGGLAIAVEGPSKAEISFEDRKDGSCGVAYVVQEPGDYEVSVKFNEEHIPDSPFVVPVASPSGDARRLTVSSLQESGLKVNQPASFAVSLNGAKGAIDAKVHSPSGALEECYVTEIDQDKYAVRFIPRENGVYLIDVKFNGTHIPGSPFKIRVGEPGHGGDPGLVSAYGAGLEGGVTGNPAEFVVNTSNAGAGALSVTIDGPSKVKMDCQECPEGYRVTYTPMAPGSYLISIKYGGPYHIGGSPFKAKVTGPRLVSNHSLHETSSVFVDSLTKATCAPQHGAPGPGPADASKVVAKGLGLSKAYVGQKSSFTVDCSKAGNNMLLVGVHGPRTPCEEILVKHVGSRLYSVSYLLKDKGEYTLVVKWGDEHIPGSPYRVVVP
Chain of proteins of HEK293T cells transiently overexpressing caspase-6 (Homo sapiens, UniProt P10809) (P10809 27-573): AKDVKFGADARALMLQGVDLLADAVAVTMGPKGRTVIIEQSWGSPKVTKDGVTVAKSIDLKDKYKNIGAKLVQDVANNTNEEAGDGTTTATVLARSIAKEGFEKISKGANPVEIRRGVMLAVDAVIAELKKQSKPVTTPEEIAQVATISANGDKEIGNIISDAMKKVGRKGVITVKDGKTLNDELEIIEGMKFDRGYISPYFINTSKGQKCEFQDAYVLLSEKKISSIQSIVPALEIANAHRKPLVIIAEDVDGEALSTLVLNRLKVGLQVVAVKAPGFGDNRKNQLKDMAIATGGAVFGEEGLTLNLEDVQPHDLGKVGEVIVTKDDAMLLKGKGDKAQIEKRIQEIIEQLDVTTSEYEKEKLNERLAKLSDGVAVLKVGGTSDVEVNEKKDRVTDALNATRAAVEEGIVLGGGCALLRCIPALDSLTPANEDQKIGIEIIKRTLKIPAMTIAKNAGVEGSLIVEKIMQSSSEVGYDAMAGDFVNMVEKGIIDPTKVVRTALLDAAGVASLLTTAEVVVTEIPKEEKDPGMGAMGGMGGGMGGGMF
Chain of proteins of HEK293T cells transiently overexpressing caspase-6 (Homo sapiens, UniProt Q92841) (Q92841 whole entry): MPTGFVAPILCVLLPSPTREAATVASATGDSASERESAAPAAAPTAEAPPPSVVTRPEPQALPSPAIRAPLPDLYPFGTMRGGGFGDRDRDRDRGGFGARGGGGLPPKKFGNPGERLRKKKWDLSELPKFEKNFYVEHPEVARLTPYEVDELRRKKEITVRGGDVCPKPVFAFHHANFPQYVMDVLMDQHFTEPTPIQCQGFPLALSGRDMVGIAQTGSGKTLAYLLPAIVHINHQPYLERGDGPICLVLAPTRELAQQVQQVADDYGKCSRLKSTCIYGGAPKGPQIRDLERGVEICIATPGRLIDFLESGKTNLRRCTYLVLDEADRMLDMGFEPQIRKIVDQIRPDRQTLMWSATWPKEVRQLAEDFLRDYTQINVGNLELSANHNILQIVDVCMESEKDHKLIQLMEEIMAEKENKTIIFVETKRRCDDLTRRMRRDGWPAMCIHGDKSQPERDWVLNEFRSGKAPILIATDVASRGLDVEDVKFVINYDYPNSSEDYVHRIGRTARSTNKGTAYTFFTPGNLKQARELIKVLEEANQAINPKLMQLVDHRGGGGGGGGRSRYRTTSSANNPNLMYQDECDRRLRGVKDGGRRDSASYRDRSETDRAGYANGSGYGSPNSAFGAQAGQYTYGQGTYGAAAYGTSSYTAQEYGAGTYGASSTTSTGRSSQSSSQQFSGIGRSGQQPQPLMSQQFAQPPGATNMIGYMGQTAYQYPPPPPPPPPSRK
Chain of proteins of HEK293T cells transiently overexpressing caspase-6 (Homo sapiens, UniProt Q9BRX8) (Q9BRX8 whole entry): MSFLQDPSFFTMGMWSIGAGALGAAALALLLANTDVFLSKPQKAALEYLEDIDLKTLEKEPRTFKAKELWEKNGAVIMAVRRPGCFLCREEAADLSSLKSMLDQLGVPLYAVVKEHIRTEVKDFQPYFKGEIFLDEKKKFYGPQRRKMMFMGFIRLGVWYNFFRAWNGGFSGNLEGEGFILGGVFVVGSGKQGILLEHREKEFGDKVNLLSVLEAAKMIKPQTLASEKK
Chain of proteins of HEK293T cells transiently overexpressing caspase-6 (Homo sapiens, UniProt P24752) (P24752 34-427): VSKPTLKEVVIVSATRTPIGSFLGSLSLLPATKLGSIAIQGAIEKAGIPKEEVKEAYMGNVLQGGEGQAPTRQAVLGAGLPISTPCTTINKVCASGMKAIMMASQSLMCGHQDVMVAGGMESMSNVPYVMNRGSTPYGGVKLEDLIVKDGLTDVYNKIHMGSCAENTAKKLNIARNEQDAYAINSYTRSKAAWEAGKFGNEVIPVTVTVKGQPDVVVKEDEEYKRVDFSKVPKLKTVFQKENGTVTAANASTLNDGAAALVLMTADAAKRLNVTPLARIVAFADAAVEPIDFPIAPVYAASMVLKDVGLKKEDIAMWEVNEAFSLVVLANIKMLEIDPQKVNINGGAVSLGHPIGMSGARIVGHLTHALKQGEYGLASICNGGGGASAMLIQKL

`C#CCOc1ccc([C@@H]2C[C@@H](C(=O)Nc3ccc(OC(F)(F)F)cc3)CN(S(=O)(=O)C=C)C2)cc1` (relative stereo) [13-t] gave an enrich.exp.med ([1]; exp_ref Probe, analysis C6) of 0.8107, an enrich.exp.med.lin [1] of 1.754 and an enrich.exp.med.log2 [1] of 0.8107. The enrich.exp.med ([2]; Probe, protein FLNA P21333) was -0.9107, the enrich.exp.med.lin ([2]; protein FLNA (P21333)) was 0.5319 and the enrich.exp.med.log2 ([2]; protein FLNA (P21333)) was -0.9107. The enrich.exp.med [3] was 0.5323, the enrich.exp.med [4] was -0.5354 and the enrich.exp.med [5] was 1.753. The enrich.exp.med [6] was -1.278, the enrich.exp.med ([7]; Probe, protein VIM P08670) was -1.006 and the enrich.exp.med.lin ([7]; protein VIM (P08670)) was 0.4978. It also gave an enrich.exp.med.log2 ([7]; protein VIM (P08670)) of -1.006, an enrich.exp.med [8] of 0.1246 and an enrich.exp.med [9] of 0.2933. It also gave an enrich.exp.med [10] of 0.3365, an enrich.exp.med [11] of -1.066 and an enrich.exp.med [12] of 0.5934. It also gave an enrich.exp.med ([13]; Probe, protein HIST1H4A P62805) of -2.533, an enrich.exp.med.lin ([13]; protein HIST1H4A (P62805)) of 0.1728 and an enrich.exp.med.log2 ([13]; protein HIST1H4A (P62805)) of -2.533. For the same molecule, the enrich.exp.med [14] was -0.8366, the enrich.exp.med [15] was -0.5222 and the enrich.exp.med ([16]; exp_ref Probe, analysis C6) was 0.7989. The enrich.exp.med.lin [16] was 1.7398, the enrich.exp.med.log2 [16] was 0.7989 and the enrich.exp.med [17] was -8.503. The enrich.exp.med [18] was 0.2005 and the enrich.exp.med [19] was -2.444.
